Laboratory results reported in publication PMC3679140, “Synthesis of Indole Derived Protease-Activated Receptor 4 Antagonists and Characterization in Human Platelets” (PLoS ONE, 2013).

Columns and labels:
[1] = system: thrombin mediated platelet GPIIbIIIa activation; assay: Flow cytometry: thrombin mediated GPIIbIIIa activation in washed platelets; assay type: cell-based, human; settings: for Addition of the effect of RWJ-56110 on thrombin and the effect of the compound on PAR1-AP: sum of separate inhibitory effects, 1 µM compound, 10 µM RWJ-56110
Method: (§1) Briefly, 60 µL of washed platelets at a concentration of 1.5×10^7 platelets/mL were added to polystyrene tubes. Anti-CD62P antibody or PAC-1 antibody were diluted (per manufacturer protocol) in Tyrode’s buffer containing 0.1% BSA. 40 µL of diluted antibody was added to the platelets and allowed to bind for 5 minutes. Platelets were pre-treated with indicated concentrations of antagonist or DMSO control for 5 minutes followed by addition of PAR1-AP or PAR4-AP for 10 minutes. Platelet activity was quenched by the addition ice cold 1.5% paraformaldehyde followed by dilution in 1X phosphate buffered saline. The final DMSO concentration was 0.5%. Platelets were stored up to 18 hours at 4°C before flow cytometric analysis. Analysis was carried out on a BD FACS Canto II (Franklin Lakes, NJ). Fluorescent intensity was determined for 100,000 events within the platelet gate. Data was collected and analyzed via FACS DiVa software.
(§2) 100% max response was determined for each individual as the DMSO treated control stimulated with either 200 µM PAR4-AP, 20 µM PAR1-AP, or 10 nM thrombin. Samples treated with antagonist were normalized as a percentage of the DMSO treated control. Normalized data was plotted in GraphPad PRISM v.5.0. Dose response curves and subsequent IC50 values were generated using the ‘log(inhibitor) vs. response variable slope’ parameter. Data plotted is mean±S.E.M. or mean±S.D.

[2] = target: T1, PAR4 (Homo sapiens, UniProt Q96RI0); assay: High-throughput platelet calcium mobilization assay (PAR4-AP stimulated); assay type: cell-based; settings: for Emax at 10 µM: 10 µM compound 6 min prior to 80 µM PAR4-AP, Figure 2D, read-out: PAR4 mediated platelet calcium mobilization, percent of the maximum response
T1 construct: Human platelets express both PAR1 and PAR4; endogenous in cells; host or cells: washed human platelets from volunteer donors
T1 sequence (Q96RI0 18-385): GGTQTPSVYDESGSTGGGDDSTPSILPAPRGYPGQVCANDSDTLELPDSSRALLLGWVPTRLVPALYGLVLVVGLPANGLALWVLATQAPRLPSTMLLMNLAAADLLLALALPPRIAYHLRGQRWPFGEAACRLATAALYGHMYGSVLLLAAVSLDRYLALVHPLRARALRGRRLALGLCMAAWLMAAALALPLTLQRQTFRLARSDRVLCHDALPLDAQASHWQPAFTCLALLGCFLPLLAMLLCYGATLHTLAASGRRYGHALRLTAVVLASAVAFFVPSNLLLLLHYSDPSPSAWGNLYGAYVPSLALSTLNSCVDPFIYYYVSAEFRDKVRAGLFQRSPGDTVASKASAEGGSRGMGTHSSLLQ
Method: Washed human platelets were prepared via standard procedure and suspended in Tyrode’s buffer containing 0.1% BSA. Platelets were dye loaded for 1 hour with Fluo4-AM in calcium assay buffer (1X HBSS without calcium or magnesium, 20 mM HEPES, 2.5 mM probenecid, 1 mM EGTA, 0.1% BSA). The calcium assay buffer containing dye is mixed with platelets to yield a final concentration of 2.5 µg/mL Fluo4-AM and 1.0×10^8 platelets/mL. 60 µL of dye loaded platelets were added to each well of a NUNC 384 well plate black optical bottom plate (Thermo, Rochester, NY). Fluorescence measurements were recorded on a Functional Drug Screening System (FDSS) 6000, Hamamatsu (Hamamatsu, Japan) at 37°C. […] Compounds were injected by the FDSS and occurred simultaneously across each plate. Experiments reported were performed in triplicate, on the same plate, from the indicated number of donors. 480∶540 (ex:em) was measured each second for a total of 12 minutes. The final concentration of DMSO in the assay was 0.5%.
The difference between basal (defined as t0) and maximal relative fluorescence unit (RFU) values (ΔRFUs) for ex:em 480∶540 was determined for each well. The triplicate ΔRFU for DMSO treated control wells stimulated with 80 µM PAR4-AP was averaged and the average value ΔC was set to 100% max response for each plate. Each well was subsequently normalized as a percent of the ΔC control (value/ΔC×100). Normalized data was plotted in GraphPad PRISM v.5.0.

[3] = target: T1, PAR4; assay: Flow cytometry: PAR4-AP mediated GPIIbIIIa activation (PAC-1 binding) in washed platelets; assay type: cell-based; settings: for IC50: 200 µM PAR4-AP, compound 5 min before, normalized to DMSO control, Figure 4; for Extent of antagonism of PAR4 mediated platelet response / GPIIbIIIa activation: maximal (200 µM) PAR4-AP, up to 10 µM compound
Method: as §1, with “Platelet activity was quenched by the addition ice cold 1.5% paraformaldehyde followed by dilution in 1X phosphate buffered saline.” left out
as §2

[4] = target: T2, PAR1 (Homo sapiens, UniProt P25116); assay: Flow cytometry: PAR1-AP mediated GPIIbIIIa activation (PAC-1 binding) in washed platelets; assay type: cell-based; settings: 20 µM PAR1-AP
T2 construct: Human platelets express both PAR1 and PAR4; endogenous in cells; host or cells: washed human platelets from volunteer donors
T2 sequence (P25116 22-425): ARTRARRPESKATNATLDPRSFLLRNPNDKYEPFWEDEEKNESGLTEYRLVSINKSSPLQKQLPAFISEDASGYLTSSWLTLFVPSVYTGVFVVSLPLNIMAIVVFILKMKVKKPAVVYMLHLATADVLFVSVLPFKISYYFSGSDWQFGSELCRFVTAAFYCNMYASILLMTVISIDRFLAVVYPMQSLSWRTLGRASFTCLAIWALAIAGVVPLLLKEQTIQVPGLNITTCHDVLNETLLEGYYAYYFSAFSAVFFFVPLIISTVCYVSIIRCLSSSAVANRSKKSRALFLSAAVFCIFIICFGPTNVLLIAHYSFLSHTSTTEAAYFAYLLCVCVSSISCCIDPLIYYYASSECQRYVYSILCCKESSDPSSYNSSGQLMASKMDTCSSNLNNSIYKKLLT
Method: as §1, with “Platelet activity was quenched by the addition ice cold 1.5% paraformaldehyde followed by dilution in 1X phosphate buffered saline.” left out
as §2

[5] = target: T1, PAR4; assay: PAR4-AP mediated platelet aggregation (light transmittance); assay type: cell-based; settings: 200 µM PAR4-AP; compound 10 min before; Figure 6
Method: (§3) Briefly, washed human platelets were prepared to a final concentration of 2.0×10^8 platelets/mL in Tyrode’s buffer containing 0.1% BSA. Compounds or DMSO control were added 10 minutes prior to stimulation with either PAR1-AP or PAR4-AP. The final DMSO concentration was 0.1%. Light transmittance was recorded by a Chrono-Log Model 700 Aggregometer.
(§4) The percent of light transmitted as reported by the aggregometer was recorded in GraphPad PRISM v.5.0. 100% light transmission signifies full platelet aggregation.

[6] = target: T1, PAR4; assay: Flow cytometry: PAR4-AP mediated P-selectin expression (anti-CD62P binding) in washed platelets; assay type: cell-based
Method: as §1, with “Platelet activity was quenched by the addition ice cold 1.5% paraformaldehyde followed by dilution in 1X phosphate buffered saline.” left out
as §2

[7] = target: T1, PAR4; design: method as in PMID 12083482; settings: cited from earlier work
[8] = target: T2, PAR1; assay: PAR1-AP mediated platelet aggregation (light transmittance); assay type: cell-based; settings: 20 µM PAR1-AP; compound 10 min before; Figure 6
Method: as §3, §4

[9] = 1 µM compound + 10 µM RWJ-56110, 10 nM thrombin

Emax at 10 µM [2]	IC50 [3]	Extent of antagonism of PAR4 mediated platelet response / GPIIbIIIa activation [3]	Inhibition of PAR4 mediated platelet aggregation [5]	Structure (SMILES)	Reduction of thrombin mediated GPIIbIIIa activation in combination with RWJ-56110 [1, 9]	Addition of the effect of RWJ-56110 on thrombin and the effect of the compound on PAR1-AP [1]	further results
–	–	–	–	CCOC(=O)c1ccc(-c2cn(Cc3ccccc3)c3ccccc23)cc1 [Compound 1]	37.1±6.4%	32.5±6.1%	–
< 50%	1000 ± 1100 nM	fully antagonize	non-significantly	CCOC(=O)c1ccc(-c2cn(Cc3ccccn3)c3ccccc23)cc1 [Compound 3]	–	–	Reduction of PAR1 mediated GPIIbIIIa activation ([4]; 3.16 µM compound): 7.2±1.3%; Reduction of thrombin mediated GPIIbIIIa activation in combination with RWJ-56110 ([1]; 3.16 µM compound + 10 µM RWJ-56110, 10 nM thrombin): 14±2%
–	–	–	–	NCC[C@H](NC(=O)[C@H](Cc1ccc(F)c(F)c1)NC(=O)Nc1ccc2c(CN3CCCC3)cn(Cc3c(Cl)cccc3Cl)c2c1)C(=O)NCc1ccccc1 [RWJ-56110, reference compound]	–	–	Inhibition of thrombin mediated GPIIbIIIa activation, compound alone ([1]; 10 µM RWJ-56110 alone, 10 nM thrombin): 18.4±5.4%
< 50%	170 ± 1 nM	fully antagonize	significantly inhibit PAR4	CCOC(=O)c1ccc(-c2cn(Cc3ccccc3)c3ncccc23)cc1 [Compound 5]	17±2%	–	Reduction of PAR1 mediated GPIIbIIIa activation ([4]; 1 µM compound): 7.2±1.4%; Inhibition of PAR1 mediated platelet aggregation [8]: not PAR1 mediated platelet aggregation

Structure (SMILES)	Emax at 10 µM [2]	IC50 [3]	Extent of antagonism of PAR4 mediated platelet response / GPIIbIIIa activation [3]	Inhibition of PAR4 mediated platelet aggregation [5]	Reduction of thrombin mediated GPIIbIIIa activation in combination with RWJ-56110 [1, 9]	Addition of the effect of RWJ-56110 on thrombin and the effect of the compound on PAR1-AP [1]	further results
CCOC(=O)c1ccc(-c2nn(Cc3ccccc3)c3ccccc23)cc1 [YD-3, ethyl 4-(1-benzyl-1H-indazol-3-yl)benzoate, reference compound]	–	26 ± 1 nM	–	–	42.9±9.7%	26.8±6.0%	Inhibition time course of PAR4-AP calcium mobilization ([2]; 10 µM YD-3, increasing treatment times, then 80 µM PAR4-AP, Figure 2B): significant inhibition by YD-3 occurred as early as 1 minute; IC50 ([6]; 200 µM PAR4-AP, from raw mean fluorescent intensity values, Figure S4): 16.4 ± 1.1 nM; Mechanism of action against PAR4 (shift of PAR4-AP concentration response curve) ([6]; P-selectin expression, twelve point PAR4-AP CRCs with increasing antagonist, Figure 7): competitive mechanism of action; Mechanism of action against PAR4 by platelet aggregation [7]: competitive in nature
